Experimental data taken from US11498949B2, “System and method for high-yield transient expression in mammalian cells” (LIFE TECHNLOLOGIES CORPORATION, priority 2012, dated 2022).

Tested on: hIgG expression
Assay: Expression enhancers in the transient transfection system, hIgG yield
Type: cell-based
Conditions: enhancer added alone to transient transfection; vs. control with neither Enhancer 1 nor Enhancer 2
Text: Components were formulated into 2 stable Enhancer solutions.

SMILES | effect on hIgG expression
CCCC(CCC)C(=O)O [Enhancer 1, valproic acid] | doubles hIgG expression
CCC(=O)[O-].[Na+] [Enhancer 2, sodium propionate] | no strong effect alone
